Test [1] concerns the target T1, Protein arginine N-methyltransferase 1 (Homo sapiens, UniProt Q99873). Briefly: Inhibition of recombinant human N-terminal GST-tagged PRMT1 (2 to end residues) expressed in baculovirus infected Sf9 insect cells at 9 uM using biotinylated histone H4 peptide as substrate preincubated for 15 mins followed by substrate/[3H]-SAM addition measured after 60 mins by microbeta liquid scintillation counting analysis.
Target sequence in this assay (Q99873 whole entry, looked up): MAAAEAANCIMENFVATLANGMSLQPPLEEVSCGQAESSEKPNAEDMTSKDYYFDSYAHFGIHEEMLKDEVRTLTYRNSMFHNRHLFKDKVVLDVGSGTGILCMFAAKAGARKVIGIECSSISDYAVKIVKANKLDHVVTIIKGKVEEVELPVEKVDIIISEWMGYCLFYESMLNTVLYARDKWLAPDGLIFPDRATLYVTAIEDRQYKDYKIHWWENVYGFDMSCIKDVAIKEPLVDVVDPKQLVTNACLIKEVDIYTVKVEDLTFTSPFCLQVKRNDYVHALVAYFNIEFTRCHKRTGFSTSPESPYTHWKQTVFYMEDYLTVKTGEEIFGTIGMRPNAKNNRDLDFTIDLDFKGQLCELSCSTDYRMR

Test [2] concerns MCF7. Briefly: Cytotoxicity against human MCF7 cells assessed as reduction in cell viability after 72 hrs by CellTiter-blue assay. Format: functional, cell-based. The settings on record: MCF7, 72 h.
Test [3] deals with Daoy. Briefly: Cytotoxicity against human DaOY cells assessed as reduction in cell viability after 72 hrs by CellTiter-blue assay. The format is functional, cell-based. A general note: The colour change of resazurin is a common sign of viable cells or microbes.
In test [4] the target is T1, Protein arginine N-methyltransferase 1. Briefly: Inhibition of recombinant human N-terminal GST-tagged PRMT1 (2 to end residues) expressed in baculovirus infected Sf9 insect cells using biotinylated histone H4 peptide as substrate preincubated for 15 mins followed by substrate/[3H]-SAM addition measured after 60 mins by microbeta liquid scintillation counting analysis.
Target sequence in this assay (Q99873 whole entry): as the sequence (Q99873 whole entry, looked up) above

Test [5] relates to HepG2. Briefly: Cytotoxicity against human HepG2 cells assessed as reduction in cell viability after 72 hrs by CellTiter-blue assay. The format is functional, cell-based. Particulars: HepG2, 72 h.
In test [6] the target is T1, Protein arginine N-methyltransferase 1. Briefly: Potency index, ratio of AMI-1 IC50 to compound IC50 for recombinant human N-terminal GST-tagged PRMT1 (2 to end residues) expressed in baculovirus infected Sf9 insect cells.
Target sequence in this assay (Q99873 whole entry, looked up): as above

A word on the inhibition: it is how much of the control response was suppressed. As usually defined, the IC50 is the concentration that inhibits the measured activity by half.

Some results are limits rather than exact numbers.

On to `CNCCN(C)c1nnnn1Cc1ccccc1C(F)(F)F`, for which the inhibition in test [1] is 13%.
The same measure, in the same setting: with `CN(CCN)Cc1ccc(-c2cccc(C(F)(F)F)c2)o1` the figure was 31%; with `CNCCN(C)c1nnnn1Cc1ccc(OC)cc1`, 0%.
The same measure, in the same setting: then `COC(=O)c1cccc(-c2ccc(CN(C)CCN)o2)c1`, with 38%.
On to `FC(F)(F)c1cccc(Cn2nnnc2N2CCNCC2)c1`, for which, in test [1], the inhibition was determined as 1%.
Take `COc1cccc(-c2ccc(CN(C)CCN)o2)c1`: in test [1], the inhibition turned out to be 24%.
As to `COC(=O)c1ccc(-c2ccc(CN(C)CCN)o2)cc1`, in test [1], the inhibition was determined as 30%.
As to `CNCCN(C)Cc1ccc(-c2cccc(OC(F)(F)F)c2)o1`, the half-maximal inhibitory concentration (IC50) stood at 64.4 µM in test [2], 23.6 µM in test [3], 14 µM in test [4] and 23 µM in test [5]. Moreover, in test [1], the inhibition is 41%.
Regarding `CNCCN(C)Cc1ccc(-c2ccc(C(F)(F)F)cc2)o1`, the IC50 was 49.8 µM in test [2], 72.8 µM in test [3], 8.2 µM in test [4] and 36.4 µM in test [5]. Also, the inhibition in test [1] came to 43%. The Ratio IC50 in test [6] worked out at 3.
As to `CN(CCN)Cc1ccc(-c2cccc(OC(F)(F)F)c2)o1`, the IC50 in test [2] is more than 100 µM; in test [3] it was more than 100 µM; in test [4], 14 µM; in test [5], more than 100 µM. For the same compound, the inhibition in test [1] was 46%.
In the case of `CNCCN(C)Cc1ccc(-c2ccc(C#N)cc2)o1`, in test [1], the inhibition was 35%.
As for `CNCCN(C)c1nnnn1Cc1ccccc1OC(F)(F)F`, the inhibition in test [1] is 9%.
Regarding `CNCCN(C)Cc1ccc(-c2cccc(C(=O)OC)c2)o1`, the 50% inhibitory concentration (IC50) in test [2] is more than 100 µM; in test [3], 71.2 µM; in test [4], 14 µM; in test [5], 74.1 µM. Further, in test [1], the inhibition is 51%.
In the case of `CNCCN(C)c1nnnn1Cc1ccc(OC(F)(F)F)cc1`, the inhibition in test [1] turned out to be 5%.
As to `CNCCN(C)Cc1ccc(-c2cccc(C(F)(F)F)c2)o1`, the half-maximal inhibitory concentration (IC50) in test [2] amounted to 61.1 µM; in test [3] it was 69.8 µM; in test [4], 14 µM; in test [5], 34.5 µM. Moreover, in test [1], the inhibition amounted to 43%.
Turning to `COc1ccc(-c2ccc(CN(C)CCN)o2)cc1`, the inhibition in test [1] was found to be 25%.
On to `O=C(Nc1ccc2c(O)cc(S(=O)(=O)O)cc2c1)Nc1ccc2c(O)cc(S(=O)(=O)O)cc2c1`, for which the values for the 50% inhibitory concentration (IC50) in test [2], in test [3] and in test [5] were more than 100 µM, more than 100 µM and 51.2 µM, respectively.
Consider `CNCCN(C)Cc1ccc(-c2cccc(OC)c2)o1`, for which the inhibition in test [1] was 37%.
Same read-out and setting: with `CN(CCN)Cc1ccc(-c2ccc(C(F)(F)F)cc2)o1` the figure was 37%.
`CNCCN(C)c1nnnn1Cc1ccc(C(F)(F)F)cc1`: the inhibition in test [1] came out at 2%.
Consider `CNCCN(C)Cc1ccc(-c2ccc(OC(F)(F)F)cc2)o1`, for which the 50% inhibitory concentration (IC50) in test [2] was 30.6 µM; in test [3], 24.3 µM; in test [4] it was 17 µM; in test [5], 24.2 µM. Besides, in test [1], the inhibition amounted to 40%.
As for `CNCCN(C)Cc1ccc(-c2cccc(C#N)c2)o1`, in test [1], the inhibition was 33%.
The same measure, in the same setting: with `CNCCN(C)c1nnnn1Cc1ccc(C#N)cc1` the figure was 6%; with `CNCCN(C)Cc1ccc(-c2ccc(C(=O)OC)cc2)o1`, 32%.
`CN(CCN)Cc1ccc(-c2ccc(OC(F)(F)F)cc2)o1`: the inhibition in test [1] was found to be 25%.
Consider `CN(CCN)Cc1ccc(-c2cccc(C#N)c2)o1`, for which, in test [1], the inhibition is 38%.
Turning to `CNCCN(C)c1nnnn1Cc1cccc(OC(F)(F)F)c1`, the inhibition in test [1] is 12%.
Still for that read-out and setting: with `CNCCN(C)c1nnnn1Cc1cccc(C(F)(F)F)c1` the figure was 8%; with `CNCCN(C)Cc1ccc(-c2ccc(OC)cc2)o1`, 38%; with `Nc1ncnc2c1ncn2[C@@H]1O[C@H](CSCC[C@H](N)C(=O)O)[C@@H](O)[C@H]1O`, 90%.

For the origin of these results see ChEMBL document CHEMBL4043236, “Design and synthesis of novel PRMT1 inhibitors and investigation of their binding preferences using molecular modelling” (Bioorg Med Chem Lett, 2017).
